Calls of active or inactive are those of the source.
Columns and labels:
[1] = target: T1, Voltage-gated N-type calcium channel alpha-1B subunit/Amyloid beta A4 precursor protein-binding family A member 1 (Homo sapiens, UniProt Q00975+Q02410); assay type: protein assay
[2] = target: T1, Voltage-gated N-type calcium channel alpha-1B subunit/Amyloid beta A4 precursor protein-binding family A member 1; assay type: protein assay; remark: listed apart in the source
ORF 73 = target: T2, ORF 73 (Human herpesvirus 8, UniProt O40947); assay: KSHV LANA DNA-binding disruption – biochemical, fluorescence polarization, cherry-picked samples, dose response (AID 504725); set-up: species or system Human gammaherpesvirus 8;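 also: fluorescence polarization of a labeled DNA duplex reporting LANA DNA binding; potency is for inhibitors that block LANA binding to the DNA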
T2 sequence (O40947 whole entry): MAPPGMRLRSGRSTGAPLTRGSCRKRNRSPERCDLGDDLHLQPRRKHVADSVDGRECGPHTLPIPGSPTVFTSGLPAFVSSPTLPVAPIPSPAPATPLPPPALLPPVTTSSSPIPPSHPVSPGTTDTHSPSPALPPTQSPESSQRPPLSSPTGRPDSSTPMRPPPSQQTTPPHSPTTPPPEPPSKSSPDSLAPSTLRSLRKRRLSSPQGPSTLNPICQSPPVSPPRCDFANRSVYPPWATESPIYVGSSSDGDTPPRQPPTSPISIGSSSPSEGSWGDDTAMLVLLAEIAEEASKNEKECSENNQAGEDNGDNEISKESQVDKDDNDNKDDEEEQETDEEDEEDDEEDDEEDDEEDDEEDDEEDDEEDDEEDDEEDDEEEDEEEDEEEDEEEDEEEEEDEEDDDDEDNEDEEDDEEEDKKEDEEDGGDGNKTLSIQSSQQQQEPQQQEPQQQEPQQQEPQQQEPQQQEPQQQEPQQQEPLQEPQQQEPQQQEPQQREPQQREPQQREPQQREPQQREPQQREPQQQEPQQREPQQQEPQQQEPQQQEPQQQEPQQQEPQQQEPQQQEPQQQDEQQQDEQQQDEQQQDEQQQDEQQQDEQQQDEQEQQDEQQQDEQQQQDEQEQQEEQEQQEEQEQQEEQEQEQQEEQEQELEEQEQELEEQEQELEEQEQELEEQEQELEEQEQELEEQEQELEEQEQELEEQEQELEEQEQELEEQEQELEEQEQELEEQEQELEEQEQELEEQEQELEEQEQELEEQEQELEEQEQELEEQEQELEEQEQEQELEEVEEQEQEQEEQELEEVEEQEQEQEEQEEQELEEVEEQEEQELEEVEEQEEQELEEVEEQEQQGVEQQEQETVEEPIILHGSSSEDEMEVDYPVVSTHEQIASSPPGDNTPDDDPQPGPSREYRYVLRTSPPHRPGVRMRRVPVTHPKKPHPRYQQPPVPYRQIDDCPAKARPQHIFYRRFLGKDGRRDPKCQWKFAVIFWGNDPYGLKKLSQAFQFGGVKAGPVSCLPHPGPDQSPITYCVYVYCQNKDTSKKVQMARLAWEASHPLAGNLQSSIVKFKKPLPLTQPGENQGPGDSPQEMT

[3] = target: T3, Carboxy-terminal domain RNA polymerase II polypeptide A small phosphatase 1 (Homo sapiens, UniProt Q9GZU7); assay: CTDSP1 inhibitors, concentration-response, biochemical, absorbance readout, ultra-high-throughput screen actives (AID 540297); assay type: functional
T3 sequence (Q9GZU7 whole entry): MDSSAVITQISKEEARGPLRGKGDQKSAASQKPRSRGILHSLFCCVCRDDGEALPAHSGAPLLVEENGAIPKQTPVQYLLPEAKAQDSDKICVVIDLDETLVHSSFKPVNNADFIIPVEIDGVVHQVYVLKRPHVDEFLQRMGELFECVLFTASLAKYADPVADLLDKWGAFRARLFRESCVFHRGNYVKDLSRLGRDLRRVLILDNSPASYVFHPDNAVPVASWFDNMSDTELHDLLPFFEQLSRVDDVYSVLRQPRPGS

[4] = target: DNA (cytosine-5)-methyltransferase 1 (Homo sapiens, UniProt P26358); assay: inhibition of DNA methylation by DNMT1 – biochemical, fluorescent molecular beacon, confirmation (AID 602386); assay type: functional
CHO-K1 = assay: (§1) Counterscreen for antagonists of the orexin 1 receptor (OX1R; HCRTR1): Homogeneous time resolved fluorescence (HTRF)-based cell-based dose response assay to identify antagonists of the parental CHO-K1 cell line. [Related pubchem assays (depositor defined):AID434989, AID435008, AID463079, AID485270, AID492963, AID492964, AID492965, AID493232, AID504699, AID504701]; assay type: functional; conditions: Cricetulus griseus
[5] = as §1, with “Fluorescence-based” for “Homogeneous time resolved fluorescence (HTRF)-based”, “cell-based high throughput” for “cell-based”, “CHO” for “CHO-K1”; assay type: functional
[6] = target: T4, Orexin/Hypocretin receptor type 1 (Homo sapiens, UniProt O43613); assay: Homogeneous Time Resolved Fluorescence (HTRF)-based cell-based high throughput dose response assay for antagonists of the orexin 1 receptor (OX1R; HCRTR1). [Related pubchem assays (depositor defined):AID434989, AID435008, AID463079, AID485270, AID492963, AID492964, AID492965, AID493232, AID504717, AID504718]; assay type: functional
T4 sequence (O43613 whole entry): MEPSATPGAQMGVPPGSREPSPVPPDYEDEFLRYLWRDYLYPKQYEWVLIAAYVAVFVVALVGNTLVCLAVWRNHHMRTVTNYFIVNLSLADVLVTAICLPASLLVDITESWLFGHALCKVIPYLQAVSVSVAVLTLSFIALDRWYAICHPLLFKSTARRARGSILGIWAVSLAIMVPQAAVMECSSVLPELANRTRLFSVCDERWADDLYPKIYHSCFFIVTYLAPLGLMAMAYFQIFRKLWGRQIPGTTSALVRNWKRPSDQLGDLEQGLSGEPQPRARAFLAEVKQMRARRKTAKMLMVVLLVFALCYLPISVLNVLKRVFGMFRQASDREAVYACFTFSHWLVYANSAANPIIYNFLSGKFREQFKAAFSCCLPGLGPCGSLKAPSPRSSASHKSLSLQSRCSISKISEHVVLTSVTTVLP

[7] = target: T4, Orexin/Hypocretin receptor type 1; assay: Fluorescence-based cell-based high throughput dose response assay for antagonists of the orexin 1 receptor (OX1R; HCRTR1). [Related pubchem assays (depositor defined):AID434989, AID435008, AID463079, AID485270, AID492963, AID492964, AID492965, AID493232, AID504717, AID504718]; assay type: functional
Orexin receptor type 2 [8] = target: T5, Orexin receptor type 2 (Homo sapiens, UniProt O43614); assay: Counterscreen assay for antagonists of the orexin 1 receptor (OX1R; HCRTR1): Fluorescence-based cell-based dose response assay for antagonists of the orexin 2 receptor (OX2R; HCRTR2), run by assay provider.; assay type: functional
T5 sequence (O43614 whole entry): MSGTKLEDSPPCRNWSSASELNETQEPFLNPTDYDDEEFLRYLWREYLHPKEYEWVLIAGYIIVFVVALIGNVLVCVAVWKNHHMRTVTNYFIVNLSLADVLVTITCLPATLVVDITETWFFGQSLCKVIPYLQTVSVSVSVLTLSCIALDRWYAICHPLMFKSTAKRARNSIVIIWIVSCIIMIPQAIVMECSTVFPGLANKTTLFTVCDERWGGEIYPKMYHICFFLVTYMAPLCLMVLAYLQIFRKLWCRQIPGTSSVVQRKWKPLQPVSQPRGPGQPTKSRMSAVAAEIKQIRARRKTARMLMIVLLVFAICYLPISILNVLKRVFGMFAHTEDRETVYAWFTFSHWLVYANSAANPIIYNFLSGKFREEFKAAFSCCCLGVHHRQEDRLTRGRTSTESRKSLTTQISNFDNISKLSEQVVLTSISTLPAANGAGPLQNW

Orexin receptor type 2 [9] = target: T5, Orexin receptor type 2; assay: Counterscreen assay for antagonists of the orexin 1 receptor (OX1R; HCRTR1): Homogeneous Time Resolved Fluorescence (HTRF)-based cell-based dose response assay for antagonists of the orexin 2 receptor (OX2R; HCRTR2), run by assay provider.; assay type: functional
[10] = target: T6, Polyadenylate-binding protein 1 (Homo sapiens, UniProt P11940); assay: MLLE binding blockers, Cy5 peptide tracer – biochemical, fluorescence polarization, Cy5-PAM2 peptide, secondary, miRNA deadenylation inhibitor project, dose response (AID 602260); assay type: functional; conditions: read-out: IC50_Mean
T6 sequence (P11940 whole entry, the tested form may be a part): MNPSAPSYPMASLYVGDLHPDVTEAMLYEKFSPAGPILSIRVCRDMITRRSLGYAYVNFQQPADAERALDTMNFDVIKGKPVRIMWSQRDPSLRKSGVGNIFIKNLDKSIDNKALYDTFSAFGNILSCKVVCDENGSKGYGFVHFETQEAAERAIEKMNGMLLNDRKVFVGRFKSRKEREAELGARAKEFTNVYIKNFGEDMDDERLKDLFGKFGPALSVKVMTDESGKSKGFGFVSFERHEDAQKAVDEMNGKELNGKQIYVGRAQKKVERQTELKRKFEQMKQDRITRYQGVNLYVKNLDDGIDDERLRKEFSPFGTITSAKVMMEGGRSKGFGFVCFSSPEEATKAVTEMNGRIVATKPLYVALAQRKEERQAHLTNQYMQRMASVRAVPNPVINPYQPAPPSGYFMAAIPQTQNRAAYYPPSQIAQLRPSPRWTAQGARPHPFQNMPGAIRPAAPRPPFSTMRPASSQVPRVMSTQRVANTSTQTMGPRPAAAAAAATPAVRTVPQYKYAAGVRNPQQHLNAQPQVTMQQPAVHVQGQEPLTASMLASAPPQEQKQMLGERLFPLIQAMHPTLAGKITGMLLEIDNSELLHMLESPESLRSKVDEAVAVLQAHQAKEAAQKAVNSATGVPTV

[11] = target: T6, Polyadenylate-binding protein 1; assay: MLLE domain peptide-binding blockers, IC50 – biochemical, fluorescence polarization, FITC-PAM2 peptide, dose response (AID 602259); assay type: functional; conditions: read-out: IC50_Mean
[12] = target: T7, Corticotropin-releasing factor receptor 2/Corticotropin-releasing factor-binding protein (Homo sapiens, UniProt P24387+Q13324); assay: Dose Response confirmation of uHTS hits for small molecule antagonists of the CRF-binding protein and CRF-R2 receptor complex.; assay type: functional; conditions: read-out: IC50_Mean
T7 sequence (Q13324 whole entry): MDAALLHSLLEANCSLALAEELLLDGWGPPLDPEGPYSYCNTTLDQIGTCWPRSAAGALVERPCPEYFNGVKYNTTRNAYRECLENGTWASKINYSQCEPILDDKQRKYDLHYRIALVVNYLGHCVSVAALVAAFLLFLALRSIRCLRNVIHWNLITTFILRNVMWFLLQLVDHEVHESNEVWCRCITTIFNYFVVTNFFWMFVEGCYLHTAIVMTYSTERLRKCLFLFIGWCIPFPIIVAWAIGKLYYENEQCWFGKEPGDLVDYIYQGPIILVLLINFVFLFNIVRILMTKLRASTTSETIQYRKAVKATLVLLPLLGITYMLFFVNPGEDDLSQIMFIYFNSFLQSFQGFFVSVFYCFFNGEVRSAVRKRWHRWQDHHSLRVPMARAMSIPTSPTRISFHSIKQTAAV
T7 sequence (P24387 whole entry): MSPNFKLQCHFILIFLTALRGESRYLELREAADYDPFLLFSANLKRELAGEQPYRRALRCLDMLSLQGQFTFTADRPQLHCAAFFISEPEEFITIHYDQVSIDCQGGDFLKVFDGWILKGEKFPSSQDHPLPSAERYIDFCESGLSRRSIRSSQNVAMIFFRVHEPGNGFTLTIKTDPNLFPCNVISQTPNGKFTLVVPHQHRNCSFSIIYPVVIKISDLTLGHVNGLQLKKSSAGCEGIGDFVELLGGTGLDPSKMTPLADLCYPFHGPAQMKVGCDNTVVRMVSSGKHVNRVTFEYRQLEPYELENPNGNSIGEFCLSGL

[13] = target: T7, Corticotropin-releasing factor receptor 2/Corticotropin-releasing factor-binding protein; assay: activators of CRF receptor 2 with binding protein – uHTS hits, confirmation (AID 602473); assay type: functional; conditions: read-out: EC50_Mean
[14] = blockers of CRF-binding protein–CRF-R2 complex – cell-based, uHTS hits, 384-well, dose response (AID 651639); assay type: functional, Homo sapiens; conditions: read-out: IC50_Mean
Melanocortin receptor 4 = Melanocortin receptor 4 (Homo sapiens, UniProt P32245); assay type: functional, cell-based;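 also: Cell-based assay with luminescence read-out, confirmatory dose-response testing for agonist activity of biased ligands at MC4R; human U2OS cells with tagged receptor and beta-arrestin; potency of agonists that increase receptor coupling to beta-arrestin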
[15] = target: T8, ATP-dependent translocase ABCB1 (Homo sapiens, UniProt P08183); assay: inhibition of BCRP-mediated JC-1 efflux – Ig-MXP3 cells, flow cytometry, set 2, dose response (AID 504566); assay type: functional; conditions: read-out: EC50_MICROM_;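 also: flow cytometry median green fluorescence of retained JC-1 dye; potency of efflux pump inhibition measured as rising substrate retention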
T8 sequence (P08183 whole entry): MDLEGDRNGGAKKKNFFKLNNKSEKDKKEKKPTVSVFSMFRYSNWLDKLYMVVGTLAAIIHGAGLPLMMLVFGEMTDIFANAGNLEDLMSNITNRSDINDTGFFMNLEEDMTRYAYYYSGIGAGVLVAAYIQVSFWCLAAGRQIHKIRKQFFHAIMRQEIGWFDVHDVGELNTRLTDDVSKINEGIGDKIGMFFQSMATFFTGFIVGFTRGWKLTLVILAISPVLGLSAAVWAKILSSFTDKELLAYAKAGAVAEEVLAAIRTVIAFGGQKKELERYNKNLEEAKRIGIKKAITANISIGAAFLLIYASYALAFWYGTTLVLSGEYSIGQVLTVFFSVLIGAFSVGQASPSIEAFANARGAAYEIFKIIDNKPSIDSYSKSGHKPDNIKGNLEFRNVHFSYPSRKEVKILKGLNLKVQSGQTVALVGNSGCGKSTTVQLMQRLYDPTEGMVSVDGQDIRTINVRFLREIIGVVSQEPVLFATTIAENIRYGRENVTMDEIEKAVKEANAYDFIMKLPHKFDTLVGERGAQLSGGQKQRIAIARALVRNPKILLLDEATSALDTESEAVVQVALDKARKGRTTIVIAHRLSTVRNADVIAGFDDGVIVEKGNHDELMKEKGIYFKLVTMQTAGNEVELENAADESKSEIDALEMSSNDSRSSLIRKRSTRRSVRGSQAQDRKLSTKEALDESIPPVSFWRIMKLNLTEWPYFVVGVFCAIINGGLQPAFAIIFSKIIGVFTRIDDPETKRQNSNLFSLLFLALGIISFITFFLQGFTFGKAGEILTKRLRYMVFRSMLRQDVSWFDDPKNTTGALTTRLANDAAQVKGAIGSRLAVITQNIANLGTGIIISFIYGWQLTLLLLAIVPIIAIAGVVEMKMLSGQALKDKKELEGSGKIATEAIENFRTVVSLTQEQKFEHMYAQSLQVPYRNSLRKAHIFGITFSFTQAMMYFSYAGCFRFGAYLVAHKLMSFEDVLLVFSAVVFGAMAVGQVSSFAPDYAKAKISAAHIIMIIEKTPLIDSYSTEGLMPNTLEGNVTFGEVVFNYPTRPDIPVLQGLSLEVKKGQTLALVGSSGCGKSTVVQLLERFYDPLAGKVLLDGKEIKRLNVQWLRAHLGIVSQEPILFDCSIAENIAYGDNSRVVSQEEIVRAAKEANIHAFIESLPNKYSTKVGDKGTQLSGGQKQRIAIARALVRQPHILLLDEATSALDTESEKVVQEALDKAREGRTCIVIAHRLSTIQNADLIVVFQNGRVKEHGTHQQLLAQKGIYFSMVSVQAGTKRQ

[16] = target: T8, ATP-dependent translocase ABCB1; assay: P-gp JC-1 efflux blockade concentration-response – Jurkat-DNR cells, flow cytometry, set 2, dose response (AID 504569); assay type: functional; conditions: read-out: EC50_MICROM_;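 also: potency of pump inhibitors that raise cellular JC-1 green fluorescence up to the nicardipine level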
[17] = target: ALK tyrosine kinase receptor (Homo sapiens, UniProt Q9UM73); assay type: functional;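 also: ALK tested as one member of a kinase panel screen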
LIM domain kinase 1 = LIM domain kinase 1 (Homo sapiens, UniProt P53667); assay: Navigating the Kinome. Panel member name: LIMK1; assay type: functional
[18] = target: Dual specificity tyrosine-phosphorylation-regulated kinase 1B (Homo sapiens, UniProt Q9Y463); assay: Navigating the Kinome. Panel member name: DYRK1B; assay type: functional
[19] = target: Macrophage-stimulating protein receptor (Homo sapiens, UniProt Q04912); assay: Navigating the Kinome. Panel member name: MST1R; assay type: functional

T1 sequence (Q00975 whole entry): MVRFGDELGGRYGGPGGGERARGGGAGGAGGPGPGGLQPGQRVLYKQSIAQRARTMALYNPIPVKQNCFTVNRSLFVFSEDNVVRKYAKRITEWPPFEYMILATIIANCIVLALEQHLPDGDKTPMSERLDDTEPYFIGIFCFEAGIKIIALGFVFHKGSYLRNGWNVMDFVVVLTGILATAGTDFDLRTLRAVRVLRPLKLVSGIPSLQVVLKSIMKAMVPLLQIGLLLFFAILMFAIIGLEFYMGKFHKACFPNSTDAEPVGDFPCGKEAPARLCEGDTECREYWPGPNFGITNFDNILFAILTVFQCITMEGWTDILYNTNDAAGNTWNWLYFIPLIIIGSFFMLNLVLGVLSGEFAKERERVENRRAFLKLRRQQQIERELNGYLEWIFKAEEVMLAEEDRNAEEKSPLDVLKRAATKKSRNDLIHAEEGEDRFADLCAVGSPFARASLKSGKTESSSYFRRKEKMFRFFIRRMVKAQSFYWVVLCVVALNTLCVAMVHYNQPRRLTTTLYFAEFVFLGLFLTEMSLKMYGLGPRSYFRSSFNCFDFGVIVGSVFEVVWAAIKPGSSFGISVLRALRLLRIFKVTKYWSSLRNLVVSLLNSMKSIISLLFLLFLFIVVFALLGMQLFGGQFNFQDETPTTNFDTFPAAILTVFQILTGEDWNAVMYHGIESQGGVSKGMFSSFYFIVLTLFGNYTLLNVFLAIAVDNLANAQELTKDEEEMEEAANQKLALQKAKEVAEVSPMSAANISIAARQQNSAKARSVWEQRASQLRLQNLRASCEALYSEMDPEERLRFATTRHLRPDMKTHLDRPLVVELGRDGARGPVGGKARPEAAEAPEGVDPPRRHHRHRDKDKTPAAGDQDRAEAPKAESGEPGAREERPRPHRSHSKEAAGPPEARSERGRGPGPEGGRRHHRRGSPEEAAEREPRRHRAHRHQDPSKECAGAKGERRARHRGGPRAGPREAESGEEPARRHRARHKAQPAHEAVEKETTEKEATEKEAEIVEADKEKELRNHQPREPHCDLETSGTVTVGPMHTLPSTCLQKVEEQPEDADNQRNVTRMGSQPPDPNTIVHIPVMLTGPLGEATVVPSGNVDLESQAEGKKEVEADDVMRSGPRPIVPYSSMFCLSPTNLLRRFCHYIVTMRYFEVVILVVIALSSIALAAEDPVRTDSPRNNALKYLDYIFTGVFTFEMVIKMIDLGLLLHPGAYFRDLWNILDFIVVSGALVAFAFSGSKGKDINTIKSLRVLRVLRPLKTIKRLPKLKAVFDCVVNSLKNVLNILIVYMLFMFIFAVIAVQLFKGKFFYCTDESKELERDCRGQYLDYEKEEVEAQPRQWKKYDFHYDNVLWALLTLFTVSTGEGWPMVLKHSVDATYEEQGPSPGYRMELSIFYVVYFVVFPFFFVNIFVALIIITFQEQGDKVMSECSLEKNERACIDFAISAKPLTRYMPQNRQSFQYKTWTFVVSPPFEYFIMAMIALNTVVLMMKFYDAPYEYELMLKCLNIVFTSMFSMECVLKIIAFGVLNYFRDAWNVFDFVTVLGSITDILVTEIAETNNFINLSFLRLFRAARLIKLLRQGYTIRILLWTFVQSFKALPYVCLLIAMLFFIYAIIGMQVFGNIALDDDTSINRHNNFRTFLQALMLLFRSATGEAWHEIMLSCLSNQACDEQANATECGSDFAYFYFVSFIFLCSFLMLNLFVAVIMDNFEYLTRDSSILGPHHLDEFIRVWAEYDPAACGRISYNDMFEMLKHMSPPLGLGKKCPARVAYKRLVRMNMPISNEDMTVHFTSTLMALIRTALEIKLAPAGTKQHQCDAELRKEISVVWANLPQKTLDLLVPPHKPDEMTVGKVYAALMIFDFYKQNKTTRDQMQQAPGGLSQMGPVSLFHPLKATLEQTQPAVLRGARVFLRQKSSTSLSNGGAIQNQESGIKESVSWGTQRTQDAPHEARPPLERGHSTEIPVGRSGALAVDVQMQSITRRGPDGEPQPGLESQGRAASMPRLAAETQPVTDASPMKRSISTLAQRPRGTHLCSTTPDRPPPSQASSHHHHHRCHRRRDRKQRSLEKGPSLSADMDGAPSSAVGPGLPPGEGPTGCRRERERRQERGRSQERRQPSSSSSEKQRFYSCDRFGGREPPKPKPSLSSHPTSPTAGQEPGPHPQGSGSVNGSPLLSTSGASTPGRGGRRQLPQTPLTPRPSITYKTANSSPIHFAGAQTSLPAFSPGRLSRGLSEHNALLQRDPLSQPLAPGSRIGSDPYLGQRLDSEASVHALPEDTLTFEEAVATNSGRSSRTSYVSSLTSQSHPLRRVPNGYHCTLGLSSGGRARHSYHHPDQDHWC
T1 sequence (Q02410 whole entry): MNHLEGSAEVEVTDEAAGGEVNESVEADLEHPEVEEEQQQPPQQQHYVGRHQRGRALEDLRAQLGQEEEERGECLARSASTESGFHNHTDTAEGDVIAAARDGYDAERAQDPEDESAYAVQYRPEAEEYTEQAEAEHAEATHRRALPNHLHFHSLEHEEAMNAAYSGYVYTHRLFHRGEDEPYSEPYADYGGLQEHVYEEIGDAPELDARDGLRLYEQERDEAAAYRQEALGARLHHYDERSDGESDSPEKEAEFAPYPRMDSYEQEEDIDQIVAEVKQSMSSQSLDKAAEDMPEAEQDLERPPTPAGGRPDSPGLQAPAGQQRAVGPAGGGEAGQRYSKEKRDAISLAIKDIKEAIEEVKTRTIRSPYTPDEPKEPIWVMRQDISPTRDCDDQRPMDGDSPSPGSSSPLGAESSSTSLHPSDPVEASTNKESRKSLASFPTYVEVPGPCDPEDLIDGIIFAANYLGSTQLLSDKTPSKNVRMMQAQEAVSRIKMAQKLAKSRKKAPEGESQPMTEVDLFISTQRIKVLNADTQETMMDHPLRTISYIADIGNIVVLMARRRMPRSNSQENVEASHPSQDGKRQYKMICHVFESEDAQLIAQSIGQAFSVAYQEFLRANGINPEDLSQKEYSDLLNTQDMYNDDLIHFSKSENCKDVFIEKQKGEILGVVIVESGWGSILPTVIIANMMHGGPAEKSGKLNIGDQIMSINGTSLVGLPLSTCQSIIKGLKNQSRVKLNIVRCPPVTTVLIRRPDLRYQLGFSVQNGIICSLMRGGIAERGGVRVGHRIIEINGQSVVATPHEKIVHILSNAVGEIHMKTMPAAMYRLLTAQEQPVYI

SMILES: C=C(C)C(=O)Nc1cccc(C2=NOC3(C2)C[C@@H](C(N)=O)N(C(=O)C2(C)CC2)C3)c1 (some centres undefined)
- IC50 [1]: 1.84 µM (active)
- IC50 [2]: > 50 µM (inactive)
- AC50 (ORF 73): 17.9 µM (active)
- IC50 [3]: 0.408 µM (active)
- IC50 [4]: 1.45 µM (active)

SMILES: Cc1ccc(N(C)S(=O)(=O)c2cccc(C(=O)NCC(c3cccs3)N3CCOCC3)c2)cc1 (centres undefined)
- IC50 (CHO-K1): > 66.2 µM (inactive)
- IC50 [5]: > 49.8 µM (inactive)
- IC50 [6]: 0.715 µM (active)
- IC50 [7]: 12 µM (inactive)
- IC50 (Orexin receptor type 2 [8]): > 88.8 µM (inactive)
- IC50 (Orexin receptor type 2 [9]): 3.35 µM (active)

SMILES: O=C(NC(=S)Nc1cccc2cccnc12)c1cccs1
- IC50 (CHO-K1): > 66.2 µM (inactive)
- IC50 [5]: > 49.7 µM (inactive)
- IC50 [6]: > 0.00331 µM (active)
- IC50 [7]: > 5.52 µM (active)
- IC50 [10]: > 66 µM (inactive)
- IC50 [11]: > 66 µM (inactive)
- IC50 (Orexin receptor type 2 [8]): > 88.8 µM (inactive)
- IC50 (Orexin receptor type 2 [9]): > 50 µM (inactive)

SMILES: CCCCNC(=O)CCn1c(=O)c2ccccc2n(Cc2ccccc2C)c1=O
- IC50 [12]: 2.98 µM (active)
- EC50 [13]: > 53 µM (inactive)
- IC50 [14]: 19.8 µM (active)

SMILES: O=C(NC(c1ccccc1)c1ccsc1)C1CCN(CCOc2ccc(Cl)cc2Cl)CC1 (centres undefined)
- EC50 (Melanocortin receptor 4): > 89.2 µM (inactive)

SMILES: O=C(c1ccoc1)N1CCCN(c2cc(-c3ccccc3)nc3cc(-c4cccc(Cl)c4)nn23)CC1
- EC50 [15]: 1.98 µM (active)
- EC50 [16]: 6 µM (active)

SMILES: Nc1ccc2cc(NCCc3ccccc3)cc(Nc3ncccn3)c2n1
- Ki [17]: 1.58 µM (active)
- Ki (LIM domain kinase 1): 0.631 µM (active)
- Ki [18]: 2 µM (active)
- Ki [19]: 3.16 µM (active)
